Test results published in PMC7648750, “In vitro and in vivo BNCT investigations using a carborane containing sulfonamide targeting CAIX epitopes on malignant pleural mesothelioma and breast cancer cells” (Scientific Reports, 2020).

Key:
Type in all cases: cell-based, human
[1] = tested on: ZL34 cells; assay: MTT cell vitality assay; conditions: normoxia
Description: (§1) The MTT assay is based on the reduction in the mitochondria of metabolically active cells by succinate dehydrogenase obtaining a precipitation of purple formazan crystal. The assay was carried out using the same protocol reported by Azzi et al[42]. Briefly, AB22, ZL34 and MCF7 cells were seeded at a density of 7 × 10^3, 5 × 10^3 and 1 × 10^4 cells per well, respectively, in a 96-well microtiter plate. After 24 h at 37 °C and 5% CO2, they were incubated with increasing concentration of CA-SF or AZ for 24 h in a condition of normoxia at 37 °C and 5% CO2 by adding stock solutions in dimethyl sulfoxide (DMSO). In all the conditions the concentration of DMSO during the cell incubation was maintained under 0.25% (v/v) in cell medium. After the incubation, the medium was removed and each well was incubated with thiazolyl blue tetrazolium bromide (Sigma) dissolved in the medium at a concentration of 0.45 mg/mL for 4 h at 37 °C and 5% CO2. Then, after medium elimination, 150 µL of DMSO were added into each well to solubilise the formazan salt crystals produced by the metabolism of live cells and the microplate was incubated at room temperature (RT) for 30 min. Finally, absorbance was measured at 570 nm using an iMark microplate reader (Biorad). Cell vitality was reported as the percentage of […] cells observed in the treated samples relative to that observed in the non-treated control cells.

[2] = tested on: MCF7 cells; assay: MTT cell vitality assay; conditions: normoxia
Description: as §1

[3] = tested on: ZL34 cells; assay: Proliferation assay of cells surviving irradiation; conditions: ZL34, 187.5 µM CA-SF before neutron irradiation
Description: (§2) 75 flasks of MCF7 (4 flasks), ZL34 (4 flasks) and AB22 (4 flasks) were seeded at a density of 1.8 × 10^6 cells, 1.2 × 10^6 cells and 5.5 × 10^5 cells, respectively. 24 h later for MCF7 and ZL34 and 72 h later for AB22, 2 flasks of each cell lines were incubated for 24 h in the presence of 72 µM, 187.5 µM and 130 µM of CA-SF, respectively. After the incubation, cells were washed with PBS and their medium was renewed. Two flasks of MCF7, ZL34 and AB22 cells incubated with CA-SF and two flasks containing non-treated control cells were irradiated for 15′ at 30 kW reactor power in the thermal column of the TRIGA Mark II reactor at the University of Pavia, Italy. […]
(§3) Then, around 7 × 10^5 MCF7, 3.5 × 10^5 ZL34 and 1 × 10^5 AB22 cells from each differently treated flask were seeded in 10 cm diameter culture dishes. […] Then, cells were sonicated for 30 s at 30% power in ice and the total cell protein concentration (that is proportional to the number of cells) from cell lysates was determined by the Bradford method, using bovine serum albumin as a standard. The Cell Growth Rate was calculated as follows: Number of cellsti-Number of cellst0/Number of cellst0×100 for which Number of cells (ti) is the number of cells measured at the various time intervals and the number of cells (t0) is the number of cells at the starting point (t = 0) of the proliferation assay.

[4] = tested on: MCF7 cells; assay: Proliferation assay of cells surviving irradiation; conditions: MCF7, 72 µM CA-SF before neutron irradiation
Description: as §2, §3

Question: How did the “cell vitality measured by MTT” value ([1]; ZL34, 187.5 µM CA-SF, 24 h, 37 °C) turn out when 1-Sulfonamidomethyl-o-carborane [CA-SF] was run?
Answer: about 80%

Question: And the “percentage of viable cells with increasing concentration (MTT)” value ([1]; ZL34, 24 h, Fig. 3)?
Answer: steadily decreases

Question: What about the “cell vitality measured by MTT” value ([2]; MCF7, 72 µM CA-SF, 24 h, 37 °C) of the same substance?
Answer: about 80%

Question: And the “percentage of viable cells with increasing concentration (MTT)” value ([2]; MCF7, 24 h, Fig. 3)?
Answer: steadily decreases

Question: What about the “proliferation rate of cells surviving to irradiation” value [3] of the same substance?
Answer: marked inhibition of proliferation

Question: And the “proliferation rate of cells surviving to irradiation” value [4]?
Answer: marked inhibition of proliferation
